Measured values published in paper PMC6570502 (Chembiochem : a European journal of chemical biology, 2019).

Molecular target: T1, wild type KDM4A (Homo sapiens, UniProt O75164)
T1 sequence (O75164 1-1064): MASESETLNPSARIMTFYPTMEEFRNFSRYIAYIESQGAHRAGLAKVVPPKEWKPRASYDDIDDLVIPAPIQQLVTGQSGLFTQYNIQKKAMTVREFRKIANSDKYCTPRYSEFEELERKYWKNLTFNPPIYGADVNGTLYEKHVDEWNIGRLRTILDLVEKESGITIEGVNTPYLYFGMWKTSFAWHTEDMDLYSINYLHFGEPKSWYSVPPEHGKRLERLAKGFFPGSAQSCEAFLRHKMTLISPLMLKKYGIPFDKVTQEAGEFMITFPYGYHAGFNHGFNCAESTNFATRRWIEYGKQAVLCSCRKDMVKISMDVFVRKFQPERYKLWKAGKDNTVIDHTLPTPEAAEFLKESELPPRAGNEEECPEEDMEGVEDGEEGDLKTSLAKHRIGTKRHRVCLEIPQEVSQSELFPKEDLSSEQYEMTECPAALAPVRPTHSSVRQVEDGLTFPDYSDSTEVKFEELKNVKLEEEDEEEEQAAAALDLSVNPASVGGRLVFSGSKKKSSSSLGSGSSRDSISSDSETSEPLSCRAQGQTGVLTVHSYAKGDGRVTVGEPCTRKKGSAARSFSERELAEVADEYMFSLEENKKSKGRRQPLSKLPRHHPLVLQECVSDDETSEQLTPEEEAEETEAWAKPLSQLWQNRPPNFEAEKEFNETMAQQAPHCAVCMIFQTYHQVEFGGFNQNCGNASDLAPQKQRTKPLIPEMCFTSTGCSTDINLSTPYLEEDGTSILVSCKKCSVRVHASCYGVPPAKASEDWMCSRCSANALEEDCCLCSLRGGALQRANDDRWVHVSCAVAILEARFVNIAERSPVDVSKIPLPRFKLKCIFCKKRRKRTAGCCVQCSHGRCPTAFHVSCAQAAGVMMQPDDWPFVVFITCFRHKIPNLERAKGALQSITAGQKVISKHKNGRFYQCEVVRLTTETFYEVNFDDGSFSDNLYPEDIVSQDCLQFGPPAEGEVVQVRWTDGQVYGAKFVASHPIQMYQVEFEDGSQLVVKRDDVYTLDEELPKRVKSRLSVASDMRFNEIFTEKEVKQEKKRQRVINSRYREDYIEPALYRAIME
Assay: MALDI demethylase assay, H3K9me3 substrate peptide, wild type enzyme
Type: biochemical

[1] = scaffold test under the optimized assay conditions (50 μM 2KG), Figure S7

| SMILES | inhibition of demethylase activity [1] | inhibition of demethylase activity (100 μM compound, 50 μM 2KG, MALDI-MS) |
| --- | --- | --- |
| O=C(O)c1ccc(O)c2ncccc12 [IOX1, 5-carboxy-8-hydroxyquinone] | inhibited | – |
| O=C(O)CNC(=O)C(=O)O [compound 2, N-oxalylglycine] | inhibited | significantly inhibited |
